Assay results: patent publication US20160330959A1, “FUNGICIDAL COMPOSITIONS OF PYRAZOLECARBOXYLIC ACID ALKOXYAMIDES” (BAYER CROPSCIENCE AKTIENGESELLSCHAFT, priority 2014, published 2016)

Assays:
[1] = log P by HPLC on reversed phase columns (EEC directive 79/831 Annex V.A8); assay type: physicochemical; conditions: pH 2.7, pH 2,7, 0.1% formic acid in water / acetonitrile gradient
Method: Measurement of log P values was performed according EEC directive 79/831 Annex V.A8 by HPLC (High Performance Liquid Chromatography) on reversed phase columns with the following methods: ^[a] Measurement of LC-MS was done at pH 2,7 with 0.1% formic acid in water and with acetonitrile (contains 0.1% formic acid) as eluent with a linear gradient from 10% acetonitrile to 95% acetonitrile. Calibration was done with not branched alkan2-ones (with 3 to 16 carbon atoms) with known log P-values (measurement of log P values using retention times with linear interpolation between successive alkanones). lambda-maX-values were determined using UV-spectra from 200 nm to 400 nm and the peak values of the chromatographic signals.

Alternaria solani = assay: in vivo preventive test on Alternaria test (tomatoes); conditions: preventive spray, evaluated 3 days after inoculation
Text: (§1) A synergistic effect of fungicides is always present when the fungicidal activity of the active compound combinations exceeds the total of the activities of the active compounds when applied individually. The expected activity for a given combination of two active compounds can be calculated as follows (cf. Colby, S. R., “Calculating Synergistic and Antagonistic Responses of Herbicide Combinations”, Weeds 1967, 15, 20-22): • If • X is the efficacy when active compound A is applied at an application rate of m ppm (or g/ha), • Y is the efficacy when active compound B is applied at an application rate of n ppm (or g/ha), • E is the efficacy when the active compounds A and B are applied at application rates of m and n ppm (or g/ha), respectively, and • then
(§2) The degree of efficacy, expressed in % is denoted. 0% means an efficacy which corresponds to that of the control while an efficacy of 100% means that no disease is observed.
To produce a suitable preparation of active compound, 1 part by weight of active compound is mixed with the stated amounts of solvent and emulsifier, and the concentrate is diluted with water to the desired concentration.
To test for preventive activity, young plants are sprayed with the preparation of active compound at the stated rate of application. After the spray coating has dried on, the plants are inoculated with an aqueous spore suspension of Alternaria solani. The plants are then placed in an incubation cabinet at approximately 20° C. and a relative atmospheric humidity of 100%.
The test is evaluated 3 days after the inoculation. 0% means an efficacy which corresponds to that of the untreated control while an efficacy of 100% means that no disease is observed.

Septoria tritici = assay: in vivo preventive Septoria tritici test (wheat); conditions: preventive spray, evaluated 21 days after inoculation
Text: as §1, §2
To produce a suitable preparation of active compound, 1 part by weight of active compound or active compound combination is mixed with the stated amounts of solvent and emulsifier, and the concentrate is diluted with water to the desired concentration.
To test for preventive activity, young plants are sprayed with the preparation of active compound or active compound combination at the stated rate of application.
After the spray coating has been dried, the plants are sprayed with a spore suspension of Septoria tritici. The plants remain for 48 hours in an incubation cabinet at approximately 20° C. and a relative atmospheric humidity of approximately 100% and afterwards for 60 hours at approximately 15° C. in a translucent incubation cabinet at a relative atmospheric humidity of approximately 100%.
The plants are placed in the greenhouse at a temperature of approximately 15° C. and a relative atmospheric humidity of approximately 80%.
The test is evaluated 21 days after the inoculation. 0% means an efficacy which corresponds to that of the untreated control, while an efficacy of 100% means that no disease is observed.

| SMILES | Efficacy in % found (Alternaria solani; 0.125 ppm a.i.) [%] | Efficacy in % found (Alternaria solani; 0.25 ppm a.i.) [%] | Efficacy in % found (Septoria tritici; 50 ppm a.i.) [%] | also measured |
| --- | --- | --- | --- | --- |
| CON(C(=O)c1c(C(F)F)nn(C)c1F)C(C)Cc1c(Cl)cc(Cl)cc1Cl (stereo not drawn) [Compound I-2, 3-(difluoromethyl)-5-fluoro-N-methoxy-1-methyl-N-[1-(2,4,6-trichlorophenyl)propan-2-yl]-1H-pyrazole-4-carboxamide] |  |  |  | chromatographic logP [1]: 4.29 |
| CC1(C)N=C(c2cnc3ccccc3c2)c2ccccc2C1(F)F [Compound B1-4] | 0 | 0 |  | Efficacy in % found (Alternaria solani; 0.5 ppm a.i.): 15%; Efficacy in % found (Septoria tritici; 60 ppm a.i.): 13% |
| CON(C(=O)c1cn(C)nc1C(F)F)C(C)Cc1c(Cl)cc(Cl)cc1Cl (stereo not drawn) [Compound I-1, 3-(difluoromethyl)-N-methoxy-1-methyl-N-[1-(2,4,6-trichlorophenyl)propan-2-yl]-1H-pyrazole-4-carboxamide] | 73 | 85 |  | Efficacy in % found (Septoria tritici; 5 ppm a.i.): 50%; Efficacy in % found (Septoria tritici; 10 ppm a.i.): 63% |
| Cc1nc2c(F)c(F)ccc2cc1Oc1cccc(F)c1C(C)(C)O [Compound B1-3, 2-{2-[(7,8-difluoro-2-methylquinolin-3-yl)oxy]-6-fluorophenyl}propan-2-ol] |  |  | 25 |  |
| Cc1nc2c(F)cccc2cc1Oc1cccc(F)c1C(C)(C)O [Compound B1-2, 2-{2-fluoro-6-[(8-fluoro-2-methylquinolin-3-yl)oxy]phenyl}propan-2-ol] |  |  | 0 |  |
| CC1(C)CN=C(c2cnc3ccccc3c2)c2cccc(F)c2O1 [Compound B1-1, 9-fluoro-2,2-dimethyl-5-(quinolin-3-yl)-2,3-dihydro-1,4-benzoxazepine] |  |  | 25 |  |
